The source of these data is ChEMBL document CHEMBL1201862, “PubChem BioAssay data set” (2004).

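Test compounds were applied to cells in 96-well plates for 48 hours at 5 doses. GI50 is the concentration that inhibits growth by half.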 Calls of active or inactive are those of the source. No stated cut-off is given here; in the data, active = GI50 up to about 1.1 µM and inactive = higher. Positions of bridges follow the written chain, without caps; N, C: chain ends. Non-standard residues stand in square brackets, D forms with d. Residues, ends and D or L forms follow the SMILES beside them. Aib = CC(C)(N)C(=O)O; βAla = NCCC(=O)O

What all share (assay): NCI-60 cell line screen, 48 h
Test [1] has as its system DU-145.
Test [2] relates to DLD-1.
For test [3], the system named is KM-20L2.
The test system of test [4] is LXFL 529.
Test [5] has as its system M19-MEL.
The test system of test [6] is SNB-78.
For test [7], the system named is XF498.
Test [8] has as its system HOP-18.

As to `CC1C2(C)OCC(C#N)(C(=N)O2)C1(C#N)C#N` (stereo not given), in test [1], the GI50 was 22.5 µM (inactive).
For the compound `CCCc1cc(COC)c(C#N)c(O)n1`, the GI50 in test [1] was > 100 µM (inactive).
As for `CCOC(=O)Cn1c(C(F)(F)F)nc2nc(Cl)c(Cl)nc21`, the GI50 in test [1] was 3.8 µM (inactive).
Same read-out and setting: for `Oc1ccc(-c2ccccc2)nn1` the value was > 100 µM (inactive); for `CC(C)(C)c1c2c(c(C(C)(C)C)c3c1OCN(Cc1ccccc1)C3)OCN(Cc1ccccc1)C2`, 22.6 µM (inactive).
Regarding `Cc1nc(N)nc(N)c1CCCc1ccccc1`, the GI50 is 12.1 µM (inactive) in test [2]; 7.31 µM (inactive) in test [3]; 8.05 µM (inactive) in test [4]; 9.95 µM (inactive) in test [5]; 32.1 µM (inactive) in test [6]; 35.7 µM (inactive) in test [7].
As for `COc1cc(OC)c2ssc3c(OC)cc(OC)c4ssc1c2-c43`, the GI50 in test [2], in test [8], in test [3], in test [4], in test [5] and in test [6] was > 100 µM (inactive) in each case. The GI50 in test [7] was > 100 µM (inactive).
Take `CCCCCCCCCCCCCCCCNc1cccc2ccccc12`: the GI50 in test [2], in test [3], in test [4], in test [5] and in test [6] was > 100 µM (inactive) throughout.
`C=CCC1(Sc2ccccn2)Sc2ccc3ccccc3c2-c2c(ccc3ccccc23)S1`: in test [1], the GI50 is > 100 µM (inactive).
For the compound `CCC1([N+](=O)[O-])CC2C=CC1C2` (stereo not given), the GI50 in test [1] is > 100 µM (inactive).
For the compound `COc1ccc(CCCNC(=O)Cc2cc(OC)c(OC)cc2CO)cc1OC`, the GI50 in test [1] was > 100 µM (inactive).
Take `NNc1cnn(-c2ccccc2)c(=O)c1Cl`: the GI50 in test [2], in test [8], in test [3], in test [4], in test [5] and in test [6] was > 100 µM (inactive) in each case.
As to `O=c1[nH]c2cc(C(F)(F)F)ccc2nc1Cc1ccccc1`, the GI50 in test [1] is > 100 µM (inactive).
In the case of `O=C(Nc1ccc(Cl)cc1Cl)C1C(=O)C(=O)N(c2ccc(Cl)cc2Cl)C1=O` (stereo not given), the GI50 in test [2], in test [8], in test [3], in test [4], in test [5] and in test [6] was > 100 µM (inactive) each time.
As for `Cc1cn(C2CC(O)C(Cn3cc(Cn4ncc(=O)[nH]c4=O)nn3)O2)c(=O)[nH]c1=O` (stereo not given), the GI50 in test [1] is > 100 µM (inactive).
As for `CCOC(=O)C1=C(C(=O)c2ccc(C)cc2)C(c2cccc([N+](=O)[O-])c2)C(C(=O)c2ccc(C)cc2)=C(C(=O)OCC)N1`, the GI50 in test [1] is 16.8 µM (inactive).
The same measure, in the same setting: for `O=C(NCc1ccccc1)c1cc2ccccc2o/c1=N\c1ccccc1F` the value was 29.7 µM (inactive).
With `CC(C)NC(=O)OCCN=C1c2ccccc2C(Br)C(Br)c2ccccc21` (stereo not given), the GI50 in test [1] was 6.98 µM (inactive).
On the same count and under the same terms, for `CSC1(SC)CCCCCCCCCCC1` the value was 55.3 µM (inactive).
Still for that read-out and setting: for `CCc1nc(N)nc(N)c1-c1ccc2nnn(O)c2c1` the value was > 100 µM (inactive).
Consider `NC1=CN(Cc2ccccc2)C2=N/C(=C\c3ccccc3)C(=O)N12`, for which the GI50 in test [1] was > 100 µM (inactive).
Consider `N#CCCN(CCC#N)C(=O)c1cccc(C(=O)N(CCC#N)CCC#N)c1`, for which the GI50 is > 88.9 µM (inactive) in test [2]; > 42.8 µM (inactive) in test [3]; 14.1 µM (inactive) in test [4]; > 100 µM (inactive) in test [5]; > 100 µM (inactive) in test [6]; > 100 µM (inactive) in test [7].
On to `O/N=C1\CC2(N3CCOCC3)CCC1(c1ccccc1)CC2`, for which, in test [1], the GI50 is > 100 µM (inactive).
As for `O=C1NC(=O)C2C(=O)NC(=O)C1C2Cc1ccco1` (stereo not given), the GI50 in test [2], in test [3], in test [5], in test [6] and in test [7] was > 100 µM (inactive) each time.
Turning to `Fc1ccc(F)c(C2SCc3nc4ccccc4n32)c1` (stereo not given), the GI50 in test [2] was > 100 µM (inactive); in test [8] it was 89.1 µM (inactive); in test [3], > 100 µM (inactive); in test [4], 53.3 µM (inactive); in test [5], 48.2 µM (inactive); in test [6] it was 52.5 µM (inactive).
As for `Nc1nc(N)c2nc(CNc3ccc(C(=O)NC(CCC(=O)O)C(=O)O)cc3F)cnc2n1` (stereo not given), the GI50 in test [1] was < 0.01 µM (active).
In the case of `CCOC(=O)N1CC2(C)C=CC1C(C(=O)OC)C2` (stereo not given), the GI50 in test [1] is > 100 µM (inactive).
Turning to `CCOC(=O)/C=C1\Nc2ccccc2-n2nnnc21`, the GI50 in test [2], in test [8], in test [3], in test [4], in test [5] and in test [6] was > 100 µM (inactive) throughout.
As to `CN1CN(c2ccccc2)C2(CCN(CCc3csc4ccccc34)CC2)C1=O`, in test [1], the GI50 was 18.7 µM (inactive).
As for `O=c1c2ccccc2c2c1c1c3ccccc3c(=O)c1c1c3ccccc3c(=O)c21`, in test [1], the GI50 is > 100 µM (inactive).
Turning to `O=C(/C=N/O)Nc1ccc(Cl)c(I)c1`, the GI50 is 27.1 µM (inactive) in test [2]; 33 µM (inactive) in test [3]; 12.9 µM (inactive) in test [4]; 22.4 µM (inactive) in test [5]; 21.6 µM (inactive) in test [7].
In the case of `COc1ccc(/N=N/c2c(C)c(C#N)c(=S)n(C3OC(COC(C)=O)C(OC(C)=O)C(OC(C)=O)C3OC(C)=O)c2-c2ccccc2)cc1` (stereo not given), in test [1], the GI50 was 7.03 µM (inactive).
For the compound `N#CC(c1ccccc1)N(CCc1ccccc1)C(=O)c1ccccc1` (stereo not given), the GI50 in test [1] was > 100 µM (inactive).
In the case of `Cc1ccc(S(=O)(=O)N2CCSCCSCCSCCN(S(=O)(=O)c3ccc(C)cc3)CC2)cc1`, in test [1], the GI50 was > 100 µM (inactive).
Regarding `CCOP(=O)(OCC)/C(=C/n1c(=S)[nH]c2ccccc21)C(=O)OC`, the GI50 in test [1] was > 100 µM (inactive).
`OC1=CN=C(C2CC2)Oc2ccccc21`: the GI50 in test [2], in test [3], in test [4], in test [5] and in test [6] was > 100 µM (inactive) throughout.
On to `CCCCC/C(C=O)=C\c1ccccc1`, for which the GI50 in test [1] was > 100 µM (inactive).
On the same count and under the same terms, for `C/C(=N/c1[nH]c(=O)cc2c1C(=O)CC2)N(C)C` the value was > 200 µM (inactive); for `COc1ccc(CCNC2=CC(=O)c3ncccc3C2=O)cc1OC`, 1.67 µM (inactive); for `COC(=O)c1ccccc1C1CN=NC12Cc1cccc(C)c1C2=O` (stereo not given), > 100 µM (inactive).
On to `COc1ccc(Nc2nc(N)c(C(=O)c3ccco3)s2)cc1`, for which the GI50 in test [1] is 38.4 µM (inactive).
`COc1ccc2c(c1)C1Oc3ccccc3CC1(O)CO2` (stereo not given): the GI50 in test [1] was > 100 µM (inactive).
`CS/C(=N\S(=O)(=O)c1ccc(Cl)cc1)NCCCCN/C(=N/S(=O)(=O)c1ccc(Cl)cc1)SC`: the GI50 in test [1] is > 100 µM (inactive).
`COc1ccc2c3c1O[C@H]1C(=O)C=CC4(n5[nH]c(=O)n(-c6ccccc6)c5=O)C(C2)N(C)CCC314` (stereo not given in full): the GI50 in test [1] is > 100 µM (inactive).
The same measure, in the same setting: for `CC1=NN2CCC(=O)N=C2S1` the value was > 100 µM (inactive); for `CN1C(=O)c2ccc3ccccc3c2C1=O`, > 100 µM (inactive).
On to `CN(C)CC(C)(C)C(/C=C/c1ccccc1)=N\Nc1ccccc1`, for which the GI50 was 0.199 µM (active) in test [2]; 15.3 µM (inactive) in test [8]; 0.0217 µM (active) in test [3]; 0.197 µM (active) in test [4]; 10 µM (inactive) in test [5]; 11 µM (inactive) in test [6].
As to `CCOC(=O)c1cccc(/N=N/c2ncc(/C=C/C(=O)OC)[nH]2)c1`, in test [1], the GI50 is 19.1 µM (inactive).
Consider `N#C/C(=C1\SC(/N=N/c2ccccc2)C(=O)N1c1ccccc1)c1nc2ccccc2[nH]1` (stereo not given), for which the GI50 in test [2] is > 100 µM (inactive); in test [3] it was > 100 µM (inactive); in test [4] it was > 100 µM (inactive); in test [5] it was > 100 µM (inactive); in test [6] it was > 100 µM (inactive); in test [7], 17.7 µM (inactive).
As to `CC(=O)OC1COC(n2nc(N)nc2C)C(OC(C)=O)C1OC(C)=O` (stereo not given), the GI50 in test [1] was > 100 µM (inactive).
For `O=C(O)C(Cc1ccccc1)N1C(=O)N/C(=C\c2ccc(F)cc2)C1=O` (stereo not given), the GI50 in test [2] is > 100 µM (inactive); in test [8], > 100 µM (inactive); in test [4], > 100 µM (inactive); in test [5] it was > 100 µM (inactive); in test [6], 18.4 µM (inactive).
`CS/C(=N\C#N)NC1CC(n2cc(C)c(=O)[nH]c2=O)OC1CO` (stereo not given): the GI50 in test [1] was > 100 µM (inactive).
Consider `O=C([O-])C(O)C(O)C(O)C(O)C(=O)O.[K+]` (stereo not given), for which the GI50 in test [1] was > 100 µM (inactive).
In the case of `COC(=O)C1C2C=CC(C2)N1[C@@H](C)c1ccccc1` (stereo not given in full), the GI50 in test [2], in test [8], in test [3], in test [4], in test [5] and in test [6] was > 100 µM (inactive) in each case.
As to `COc1nc2c(c(=O)n1C)N(C(C)=O)C1C(N2)OCC(OC(C)=O)C1OC(C)=O` (stereo not given), the GI50 in test [1] was > 10 µM (inactive).
In the case of `CC(C)C1CC(O)O[C@@H]([C@@H](C)[C@H]2CC(=O)[C@@H]3[C@@H]4[C@@H](O)[C@H](O)[C@H]5[C@@H](O)[C@H](O)CC[C@]5(C)[C@H]4CC[C@]23C)C1` (stereo not given in full), the GI50 in test [2] is > 100 µM (inactive); in test [3] it was > 100 µM (inactive); in test [4] it was > 100 µM (inactive); in test [5], 37.1 µM (inactive); in test [6], 38.9 µM (inactive); in test [7] it was 18.9 µM (inactive).
As for `O=C1/C(=C/c2ccc([N+](=O)[O-])cc2)CNC/C1=C\c1ccc([N+](=O)[O-])cc1`, the GI50 in test [1] was 10.8 µM (inactive).
On the same count and under the same terms, for `CC1(C)NC(=O)C(NC(=O)C(N)CC(=O)O)CCCCNC(=O)CCNC1=O` (stereo not given) (H-DK[Aib][βAla]; lactam 2-C; configuration not given here) the value was > 100 µM (inactive); for `C[C@@H]1C[C@@H]2OC(=O)[C@]3(C)[C@H]2[C@@H](OC3(C)O)[C@]2(C)C(=O)C=C[C@@H]12` (stereo not given in full) [TENULIN], 39.6 µM (inactive).
